Assay results as given in patent US6361595B1, “Process for the preparation of pigment compositions” (Ciba Specialty Chemicals Corporation, priority 1999, dated 2002).
Values joined by “and” are separate entries in the source; they are usually repeats but may differ in a detail not shown here. Identical values can stand only once. Each block holds one compound with its values, some of them ahead of it.

Key:
[1] = tested on: mixed culture of Gram-positive cocci, Gram-negative cocci, Gram-positive rods and Gram-negative rods; assay: Microbial contamination of dried Pigment Yellow 65 powder (Example 2 procedure) after mixing filter cake with bacterial culture; type: cell-based, bacteria
Method: (§1) Susceptibility to microbial contamination is assessed according to the following procedure:
(§2) Microbial contamination is assessed using individual bacteria of the morphological types, Gram-positive cocci, Gram-negative cocci, Gram-positive rods and Gram-negative rods which are maintained on Nutrient Agar slopes. When required, each is cultured in Nutrient broth at 30° C. until an organism count of >10^8 colony-forming units (cfu) per milliliter (ml) is reached. The individual cultures are then mixed in equal proportions to provide a mixed culture which is then used immediately.
(§3) 10 mg of the sieved powder and one drop of sterile water are evenly spread on a Nutrient Agar plate with a glass spreader under aseptic conditions and the plate incubated at 30° C. for 48 hours, The number of bacterial colonies evident on each plate are then counted and expressed as the number of colony-forming units per gram (cfu/g).
(§4) 23.3 parts of acetic acid (100%) are added to a solution of 55 parts of acetoacet-o-anisidide dissolved in a solution of 25.5 parts of sodium hydroxide (47%) in 450 parts of water at a temperature of 0° C. The resultant slurry is reacted with 42.5 parts of o-nitro-p-anisidine previously diazotised with 45.4 parts of sodium nitrite (37%) and 56 parts of hydrochloric acid (36%) in the usual manner with simultaneous addition of sodium hydroxide solution (10%) to maintain pH 5.5-6.0. To the coupled slurry are then added 3 parts of dibutyl sebacate and 1 part of dimethylbenzyl-C12-14alkylammonium chloride (100% active) and the mixture is heated to a temperature of 100° C. and maintained at this temperature for one hour. The product is then filtered and washed with water under vacuum to remove soluble salts. The filter cake (still under vacuum suction) is mixed with a bacterial culture (10 ml of culture diluted to 100 ml with water) and vacuum suction is maintained until no further liquid emanates from the filter cake. The filter cake, without further washing, is then dried and converted to a powder by grinding. The powder is then passed through a 150 micron sieve.
The procedure described in Example 2 is repeated, but varying the type of biocide and amount of biocide used.
The procedure described in Example 2 is repeated, but varying the type of biocide and amount of biocide used and omitting the DBS.

[2] = tested on: mixed culture of Gram-positive cocci, Gram-negative cocci, Gram-positive rods and Gram-negative rods; assay: Microbial contamination of dried Pigment Yellow 74 powder (Example 1 procedure) after mixing filter cake with bacterial culture; type: cell-based, bacteria; settings: PY74, 3 parts dibutyl sebacate, plate 30° C. 48 hours
Method: as §1, §2
as §4, with “(80%)” for “(100%)”, “p-nitro-o-anisidine” for “o-nitro-p-anisidine”, “cake(still” for “cake (still”, “water)and” for “water) and”
The procedure described in Example 1 is repeated, but varying the type of biocide and amount of biocide used. The procedure for determining the extent of microbial contamination is as follows:
as §3

[3] = tested on: mixed culture of Gram-positive cocci, Gram-negative cocci, Gram-positive rods and Gram-negative rods; assay: Microbial contamination of dried Pigment Yellow 13 powder (Example 5 procedure) after mixing filter cake with bacterial culture; type: cell-based, bacteria; settings: PY13, no DBS
Method: as §1, §2, §3
A solution of 8.9 parts of acetic acid (100%) and 15 parts hydrochloric acid (36%) in 100 parts water are added to a solution of 63 parts of acetoacet-m-xylidide dissolved in a solution of 25.2 parts of sodium hydroxide (50%) in 676 parts of water at a temperature of 20° C. The resultant slurry is reacted with 36.9 parts of a previously tetrazotised solution of 3,3′-dichlorobenzidine, with simultaneous addition of sodium hydroxide solution (10%) to maintain pH 4.5-5.5. […] The product is then filtered and washed with water under vacuum to remove soluble salts. The filter cake (still under vacuum suction) is mixed with a bacterial culture (10 ml of culture diluted to 100 ml with water) and vacuum suction is maintained until no further liquid emanates from the filter cake. The filter cake, without further washing, is then dried and converted to a powder by grinding. The powder is then passed through a 150 micron sieve.

[4] = Colour strength on storage of pigment powder, tested in alkyd paint system; type: physicochemical
Method: The dried pigments are incorporated in a conventional manner into an alkyd paint system (SORBAL®P470, an alkyd resin ex DSM resins Ltd. having a solids content of 70%, white spirit, pigment and driers solution).
The dried powders are each divided into two portions. One portion is tested in the paint system immediately after drying. […] The tinting strengths are assessed visually and instrumentally.
The values correspond to the instrumentally-measured colour strength for the same pigment content in the paint.

[5] = PY65, omitting the DBS, 0.5 parts biocide
[6] = PY65, omitting the DBS, 1.0 parts biocide
[7] = PY65, omitting the DBS, 3.0 parts biocide
[8] = PY65, omitting the DBS, 5.0 parts biocide
[9] = PY65, with 3 parts dibutyl sebacate, 0.5 parts biocide
[10] = PY65, with 3 parts dibutyl sebacate, 1.0 parts biocide
[11] = PY65, with 3 parts dibutyl sebacate, 3.0 parts biocide
[12] = PY65, with 3 parts dibutyl sebacate, 5.0 parts biocide

Compound: O=c1[nH]sc2ccccc12 [LV, 1,2-Benzisothiazolin-3-one]
microbial contamination, colony-forming units per gram [1, 5]: >10^4 cfu/g
microbial contamination, colony-forming units per gram [1, 6]: >10^4 cfu/g
microbial contamination, colony-forming units per gram [1, 7]: >10^4 cfu/g
microbial contamination, colony-forming units per gram [1, 8]: >10^4 cfu/g
microbial contamination, colony-forming units per gram [1, 9]: >10^4 cfu/g
microbial contamination, colony-forming units per gram [1, 10]: >10^4 cfu/g
microbial contamination, colony-forming units per gram [1, 11]: >10^4 cfu/g
microbial contamination, colony-forming units per gram [1, 12]: >10^4 cfu/g
microbial contamination, colony-forming units per gram ([2]; 0.5 parts biocide): >10^5 cfu/g
microbial contamination, colony-forming units per gram ([2]; 1.0 parts biocide): >10^5 cfu/g
microbial contamination, colony-forming units per gram ([2]; 3.0 parts biocide): >10^5 cfu/g
microbial contamination, colony-forming units per gram ([2]; 5.0 parts biocide): >10^5 cfu/g
microbial contamination, colony-forming units per gram ([3]; 0.5 parts biocide): 3.0 × 10^3 cfu/g
microbial contamination, colony-forming units per gram ([3]; 1.0 parts biocide): 4.0 × 10^2 cfu/g
microbial contamination, colony-forming units per gram ([3]; 3.0 parts biocide): 1.0 × 10^2 cfu/g
microbial contamination, colony-forming units per gram ([3]; 5.0 parts biocide): 6.0 × 10^2 cfu/g

Compound: Dimethyl-di-C12-14-alkylammonium chloride [Example 2C-75]
microbial contamination, colony-forming units per gram ([2]; 0.5 parts biocide): 8.0 × 10^4 cfu/g
microbial contamination, colony-forming units per gram ([2]; 1.0 parts biocide): 0 cfu/g
microbial contamination, colony-forming units per gram ([2]; 3.0 parts biocide): 0 cfu/g
microbial contamination, colony-forming units per gram ([2]; 5.0 parts biocide): 0 cfu/g

Compound: CCCCn1sc2ccccc2c1=O [DN, n-Butylbenzisothiazolin-3-one]
microbial contamination, colony-forming units per gram [1, 9]: >10^4 cfu/g
microbial contamination, colony-forming units per gram [1, 10]: >10^4 cfu/g
microbial contamination, colony-forming units per gram [1, 11]: >10^4 cfu/g
microbial contamination, colony-forming units per gram [1, 12]: 8.0 × 10^2 cfu/g
microbial contamination, colony-forming units per gram ([2]; 0.5 parts biocide): >10^4 cfu/g
microbial contamination, colony-forming units per gram ([2]; 1.0 parts biocide): >10^4 cfu/g
microbial contamination, colony-forming units per gram ([2]; 3.0 parts biocide): >10^3 cfu/g
microbial contamination, colony-forming units per gram ([2]; 5.0 parts biocide): 0 cfu/g

Compound: Methylbenzyl-di-C16-18-alkylammonium chloride [Example M2HTB]
microbial contamination, colony-forming units per gram ([2]; 0.5 parts biocide): >10^4 cfu/g
microbial contamination, colony-forming units per gram ([2]; 1.0 parts biocide): 0 cfu/g
microbial contamination, colony-forming units per gram ([2]; 3.0 parts biocide): 0 cfu/g
microbial contamination, colony-forming units per gram ([2]; 5.0 parts biocide): 0 cfu/g

Compound: CCCCCCCCn1sccc1=O [OTW, n-Octylisothiazolin-3-one]
microbial contamination, colony-forming units per gram [1, 5]: >10^4 cfu/g
microbial contamination, colony-forming units per gram [1, 6]: >10^4 cfu/g
microbial contamination, colony-forming units per gram [1, 7]: >10^3 cfu/g
microbial contamination, colony-forming units per gram [1, 8]: >10^3 cfu/g
microbial contamination, colony-forming units per gram [1, 9]: >10^4 cfu/g
microbial contamination, colony-forming units per gram [1, 10]: >10^4 cfu/g
microbial contamination, colony-forming units per gram [1, 11]: >10^4 cfu/g
microbial contamination, colony-forming units per gram [1, 12]: 0 cfu/g
microbial contamination, colony-forming units per gram ([2]; 0.5 parts biocide): >10^4 cfu/g
microbial contamination, colony-forming units per gram ([2]; 1.0 parts biocide): 2.0 × 10^4 cfu/g
microbial contamination, colony-forming units per gram ([2]; 3.0 parts biocide): >10^4 cfu/g
microbial contamination, colony-forming units per gram ([2]; 5.0 parts biocide): 1.4 × 10^3 cfu/g
microbial contamination, colony-forming units per gram ([3]; 0.5 parts biocide): >10^4 cfu/g
microbial contamination, colony-forming units per gram ([3]; 1.0 parts biocide): 5.0 × 10^3 cfu/g
microbial contamination, colony-forming units per gram ([3]; 3.0 parts biocide): 0 cfu/g
microbial contamination, colony-forming units per gram ([3]; 5.0 parts biocide): 0 cfu/g

Compound: Trimethyl-di-C12-14-alkylammonium chloride [Example C-35]
microbial contamination, colony-forming units per gram ([2]; 0.5 parts biocide): >10^4 cfu/g
microbial contamination, colony-forming units per gram ([2]; 1.0 parts biocide): 4.5 × 10^3 cfu/g
microbial contamination, colony-forming units per gram ([2]; 3.0 parts biocide): 0 cfu/g
microbial contamination, colony-forming units per gram ([2]; 5.0 parts biocide): 0 cfu/g

Compound: Cn1sccc1=O [MIT, Methylisothiazolin-3-one]
microbial contamination, colony-forming units per gram [1, 5]: >10^5 cfu/g
microbial contamination, colony-forming units per gram [1, 6]: >10^5 cfu/g
microbial contamination, colony-forming units per gram [1, 7]: >10^5 cfu/g
microbial contamination, colony-forming units per gram [1, 8]: >10^5 cfu/g
microbial contamination, colony-forming units per gram [1, 9]: >10^4 cfu/g
microbial contamination, colony-forming units per gram [1, 10]: >10^3 cfu/g
microbial contamination, colony-forming units per gram [1, 11]: >10^3 cfu/g
microbial contamination, colony-forming units per gram [1, 12]: 0 cfu/g
microbial contamination, colony-forming units per gram ([2]; 0.5 parts biocide): 8.0 × 10^3 cfu/g
microbial contamination, colony-forming units per gram ([2]; 1.0 parts biocide): 1.0 × 10^4 cfu/g
microbial contamination, colony-forming units per gram ([2]; 3.0 parts biocide): 3.0 × 10^3 cfu/g
microbial contamination, colony-forming units per gram ([2]; 5.0 parts biocide): 1.0 × 10^4 cfu/g
microbial contamination, colony-forming units per gram ([3]; 0.5 parts biocide): >10^4 cfu/g
microbial contamination, colony-forming units per gram ([3]; 1.0 parts biocide): 4.0 × 10^3 cfu/g
microbial contamination, colony-forming units per gram ([3]; 5.0 parts biocide): 9.0 × 10^2 cfu/g

Compound: Tetrakishydroxymethylphosphonium sulphate [THPS]
microbial contamination, colony-forming units per gram [1, 5]: >10^5 cfu/g
microbial contamination, colony-forming units per gram [1, 6]: >10^5 cfu/g
microbial contamination, colony-forming units per gram [1, 7]: >10^5 cfu/g
microbial contamination, colony-forming units per gram [1, 8]: >10^5 cfu/g
microbial contamination, colony-forming units per gram [1, 9]: >10^5 cfu/g
microbial contamination, colony-forming units per gram [1, 10]: >10^5 cfu/g
microbial contamination, colony-forming units per gram [1, 11]: >10^5 cfu/g
microbial contamination, colony-forming units per gram [1, 12]: >10^5 cfu/g
microbial contamination, colony-forming units per gram ([2]; 0.5 parts biocide): >10^5 cfu/g
microbial contamination, colony-forming units per gram ([2]; 1.0 parts biocide): >10^5 cfu/g
microbial contamination, colony-forming units per gram ([2]; 3.0 parts biocide): >10^5 cfu/g
microbial contamination, colony-forming units per gram ([2]; 5.0 parts biocide): >10^5 cfu/g
microbial contamination, colony-forming units per gram ([3]; 0.5 parts biocide): >10^4 cfu/g
microbial contamination, colony-forming units per gram ([3]; 1.0 parts biocide): >10^4 cfu/g
microbial contamination, colony-forming units per gram ([3]; 3.0 parts biocide): >10^4 cfu/g
microbial contamination, colony-forming units per gram ([3]; 5.0 parts biocide): >10^4 cfu/g

loss of strength ([4]; initial versus last storage time at ambient temperature): 36 and 26 and 42
amount of Pigment required, 3 weeks ([4]; powder stored at ambient temperature 3 weeks): 105 and 104
amount of Pigment required, 6 weeks ([4]; powder stored at ambient temperature 6 weeks): 105 and 108
colour strength, initial ([4]; powder tested immediately after drying, instrumentally-measured colour strength): 141 and 134 and 146
Compound: COc1cc([N+](=O)[O-])ccc1/N=N/C(C(C)=O)C(=O)Nc1ccccc1OC (centres unmarked) [C.I. Pigment Yellow 74]

Compound: Benzyldimethyl-C16-18-alkylammonium chloride [DMHTB]
microbial contamination, colony-forming units per gram ([2]; 0.5 parts biocide): >10^4 cfu/g
microbial contamination, colony-forming units per gram ([2]; 1.0 parts biocide): 0 cfu/g
microbial contamination, colony-forming units per gram ([2]; 3.0 parts biocide): 0 cfu/g
microbial contamination, colony-forming units per gram ([2]; 5.0 parts biocide): 0 cfu/g

Compound: Methylbis-(2-hydroxyethyl)-C12-14-alkylammonium chloride [EthO-12]
microbial contamination, colony-forming units per gram ([2]; 0.5 parts biocide): >10^4 cfu/g
microbial contamination, colony-forming units per gram ([2]; 1.0 parts biocide): 0 cfu/g
microbial contamination, colony-forming units per gram ([2]; 3.0 parts biocide): 0 cfu/g
microbial contamination, colony-forming units per gram ([2]; 5.0 parts biocide): 0 cfu/g
